The target in one assay is JAK1 (Homo sapiens (Human), UniProt P23458). In words: pSTAT3 Cell Assay (MSD, TF1 cells). The assay is classed as cell-based. The essentials: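 Serum-starved TF1 cells were pretreated with compound for 1 hour (10-point, four-fold dilutions from 10 μM), then stimulated with IL-6 for 15 minutes. Lysates were assayed for pSTAT3 by MSD with anti-STAT3 antibodies; IC50 came from a 4-parameter logistic fit of normalized percent activity.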

The target in a further assay is Tyk2 (Homo sapiens (Human), UniProt P29597). Put plainly: pSTAT4 Cell Assay (MSD, NK92 cells). The format is cell-based.
Tyk2, sequence (P29597 whole entry): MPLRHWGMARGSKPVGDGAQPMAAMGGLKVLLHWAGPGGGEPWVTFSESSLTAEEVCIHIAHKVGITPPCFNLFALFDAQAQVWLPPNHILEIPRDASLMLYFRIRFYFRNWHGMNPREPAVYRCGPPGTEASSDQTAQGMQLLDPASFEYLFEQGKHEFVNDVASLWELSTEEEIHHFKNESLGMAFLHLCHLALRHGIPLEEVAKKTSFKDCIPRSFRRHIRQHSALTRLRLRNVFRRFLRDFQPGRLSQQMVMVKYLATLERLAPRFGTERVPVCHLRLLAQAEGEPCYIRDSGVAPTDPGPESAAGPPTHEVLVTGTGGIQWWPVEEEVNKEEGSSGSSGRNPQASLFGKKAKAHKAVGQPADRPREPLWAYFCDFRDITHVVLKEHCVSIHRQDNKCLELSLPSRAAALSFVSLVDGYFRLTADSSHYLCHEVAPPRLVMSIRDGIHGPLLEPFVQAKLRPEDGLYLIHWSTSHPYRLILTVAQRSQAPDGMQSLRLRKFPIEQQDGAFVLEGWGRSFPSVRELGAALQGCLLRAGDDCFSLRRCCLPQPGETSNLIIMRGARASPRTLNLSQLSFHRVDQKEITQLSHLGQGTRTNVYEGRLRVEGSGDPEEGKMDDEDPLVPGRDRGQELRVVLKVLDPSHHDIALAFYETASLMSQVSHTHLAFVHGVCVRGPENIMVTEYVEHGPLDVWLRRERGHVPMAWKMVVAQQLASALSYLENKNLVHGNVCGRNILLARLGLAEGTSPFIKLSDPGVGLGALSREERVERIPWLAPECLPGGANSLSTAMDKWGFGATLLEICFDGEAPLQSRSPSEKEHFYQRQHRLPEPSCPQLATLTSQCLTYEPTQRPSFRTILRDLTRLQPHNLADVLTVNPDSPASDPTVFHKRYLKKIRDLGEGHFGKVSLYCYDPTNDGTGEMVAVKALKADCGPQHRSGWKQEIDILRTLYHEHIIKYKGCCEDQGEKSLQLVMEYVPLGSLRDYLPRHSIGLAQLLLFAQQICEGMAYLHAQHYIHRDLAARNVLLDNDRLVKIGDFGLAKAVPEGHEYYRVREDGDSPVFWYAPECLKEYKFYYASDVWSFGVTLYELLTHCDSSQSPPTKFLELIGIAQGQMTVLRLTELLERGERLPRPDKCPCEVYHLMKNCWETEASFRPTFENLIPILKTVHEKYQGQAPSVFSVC
The target in a further assay is JAK2 (Homo sapiens (Human), UniProt O60674). Put plainly: pSTAT5 Cell Assay (MSD, TF1 cells). The assay is classed as cell-based. The essentials:
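Serum-starved TF1 cells were pretreated with compound for 1 h (10-point four-fold series from 10 μM), then stimulated with 30 ng/mL IL-3 for 15 min. pSTAT5 in lysates was measured by MSD immunoassay. IC50 came from a 4-parameter logistic fit.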

For another assay, the target named is JH2 domain of human Tyk2 (Homo sapiens (Human), UniProt P29597). Put plainly: JH2 Biochemical Assay (TR-FRET probe displacement). The assay is classed as binding.
JH2 domain of human Tyk2, sequence (P29597 575-876): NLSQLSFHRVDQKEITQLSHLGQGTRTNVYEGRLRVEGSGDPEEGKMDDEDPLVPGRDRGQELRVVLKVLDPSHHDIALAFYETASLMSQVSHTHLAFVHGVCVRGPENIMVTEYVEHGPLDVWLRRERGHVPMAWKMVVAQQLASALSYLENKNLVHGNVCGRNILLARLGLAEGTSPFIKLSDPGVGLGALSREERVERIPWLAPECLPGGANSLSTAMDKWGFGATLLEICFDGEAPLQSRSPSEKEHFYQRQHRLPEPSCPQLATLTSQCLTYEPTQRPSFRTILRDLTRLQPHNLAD
Where [1] appears, read: TR-FRET probe displacement, JH2 domain of human Tyk2.
[2] abbreviates: TR-FRET probe displacement, JH2 domain.
Setting [3] is: JH2 domain of human Tyk2, TR-FRET probe displacement.

Experimental findings from patent US20260028365A1 (BIOGEN MA INC., priority 2022, published 2026) are described below.

Like-named read-outs stand apart in the source and are kept apart here. Some results are limits rather than exact numbers.

JAK2, sequence (O60674 whole entry): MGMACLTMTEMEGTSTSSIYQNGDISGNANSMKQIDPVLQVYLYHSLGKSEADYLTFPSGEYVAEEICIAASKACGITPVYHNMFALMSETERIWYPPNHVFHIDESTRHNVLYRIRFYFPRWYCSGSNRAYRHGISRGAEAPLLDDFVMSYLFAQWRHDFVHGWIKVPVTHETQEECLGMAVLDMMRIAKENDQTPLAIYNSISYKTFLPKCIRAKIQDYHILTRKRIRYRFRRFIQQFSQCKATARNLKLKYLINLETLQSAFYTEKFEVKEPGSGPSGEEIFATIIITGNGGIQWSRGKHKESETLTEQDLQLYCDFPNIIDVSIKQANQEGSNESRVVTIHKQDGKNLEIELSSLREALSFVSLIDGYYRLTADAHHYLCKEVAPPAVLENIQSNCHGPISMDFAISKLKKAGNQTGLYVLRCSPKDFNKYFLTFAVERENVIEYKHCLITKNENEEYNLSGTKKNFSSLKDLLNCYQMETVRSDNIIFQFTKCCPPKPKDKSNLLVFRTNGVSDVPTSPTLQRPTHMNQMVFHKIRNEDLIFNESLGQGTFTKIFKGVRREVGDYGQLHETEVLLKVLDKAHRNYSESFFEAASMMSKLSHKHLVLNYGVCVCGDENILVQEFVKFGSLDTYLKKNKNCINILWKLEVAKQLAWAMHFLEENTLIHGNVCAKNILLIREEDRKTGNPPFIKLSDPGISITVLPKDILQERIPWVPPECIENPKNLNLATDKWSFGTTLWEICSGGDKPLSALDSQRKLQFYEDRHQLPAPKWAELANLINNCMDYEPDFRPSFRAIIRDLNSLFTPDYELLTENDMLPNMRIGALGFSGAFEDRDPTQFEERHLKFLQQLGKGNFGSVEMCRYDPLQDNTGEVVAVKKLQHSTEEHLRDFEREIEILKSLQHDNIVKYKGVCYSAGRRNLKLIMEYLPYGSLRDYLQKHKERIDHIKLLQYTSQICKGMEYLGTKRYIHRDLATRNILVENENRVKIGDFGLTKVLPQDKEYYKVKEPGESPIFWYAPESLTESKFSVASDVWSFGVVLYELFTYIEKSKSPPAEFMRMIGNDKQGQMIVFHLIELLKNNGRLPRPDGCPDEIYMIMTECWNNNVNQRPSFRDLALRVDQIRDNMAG
JAK1, sequence (P23458 whole entry): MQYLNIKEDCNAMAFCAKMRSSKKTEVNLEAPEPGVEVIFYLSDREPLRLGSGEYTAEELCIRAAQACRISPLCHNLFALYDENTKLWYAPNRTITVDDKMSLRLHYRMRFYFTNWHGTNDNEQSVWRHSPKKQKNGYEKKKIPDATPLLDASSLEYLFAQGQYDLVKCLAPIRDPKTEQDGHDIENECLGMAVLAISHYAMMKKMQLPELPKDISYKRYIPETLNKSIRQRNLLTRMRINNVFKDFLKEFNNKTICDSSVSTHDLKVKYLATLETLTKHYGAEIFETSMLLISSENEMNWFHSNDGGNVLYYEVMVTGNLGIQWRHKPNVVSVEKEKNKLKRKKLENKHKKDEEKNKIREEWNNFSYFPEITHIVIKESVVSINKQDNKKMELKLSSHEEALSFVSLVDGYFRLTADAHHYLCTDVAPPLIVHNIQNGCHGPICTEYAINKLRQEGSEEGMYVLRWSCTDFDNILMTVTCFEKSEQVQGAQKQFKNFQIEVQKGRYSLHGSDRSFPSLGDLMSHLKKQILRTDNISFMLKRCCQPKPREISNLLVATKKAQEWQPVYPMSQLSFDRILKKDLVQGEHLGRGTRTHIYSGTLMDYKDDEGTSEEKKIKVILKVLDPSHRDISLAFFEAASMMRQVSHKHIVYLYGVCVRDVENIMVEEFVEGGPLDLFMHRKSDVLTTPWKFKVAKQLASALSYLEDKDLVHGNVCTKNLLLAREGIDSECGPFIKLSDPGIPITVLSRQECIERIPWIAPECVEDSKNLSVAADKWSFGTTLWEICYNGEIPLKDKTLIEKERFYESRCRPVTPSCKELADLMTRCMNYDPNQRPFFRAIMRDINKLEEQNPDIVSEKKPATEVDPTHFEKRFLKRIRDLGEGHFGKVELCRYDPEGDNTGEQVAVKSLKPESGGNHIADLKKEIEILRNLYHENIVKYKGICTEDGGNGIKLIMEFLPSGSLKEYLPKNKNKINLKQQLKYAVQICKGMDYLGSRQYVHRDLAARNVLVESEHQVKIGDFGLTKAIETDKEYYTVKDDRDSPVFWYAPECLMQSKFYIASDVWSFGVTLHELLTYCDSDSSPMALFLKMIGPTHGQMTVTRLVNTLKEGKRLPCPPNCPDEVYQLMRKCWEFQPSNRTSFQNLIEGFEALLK

Broadly, the IC50 is the concentration needed to halve the response being measured. The low end stands for inhibition by little substance, the high end for a need for much substance. As for `CC(=O)Nc1cc(Nc2cc(C)nc(C(C)(F)F)n2)c(OC[C@H]2CCCO2)cn1` (single isomer, unassigned) [Example 294, (R)-N-(4-((2-(1,1-difluoroethyl)-6-methylpyrimidin-4-yl)amino)-5-((tetrahydrofuran-2-yl)methoxy)pyridin-2-yl)acetamide or (S)-N-(4-((2-(1,1-difluoroethyl)-6-methylpyrimidin-4-yl)amino)-5-((tetrahydrofuran-2-yl)methoxy)pyridin-2-yl)acetamide], the IC50 on JAK1 (IL-6 stimulation, MSD) was at least 1000 nM; against Tyk2 (MSD), at most 10 nM; at JAK2 (IL-3 stimulation, MSD) it was at least 1000 nM; at JH2 domain of human Tyk2 (setting [1]) it was at most 10 nM.
With `CCc1cc(Nc2cc(NC(N)=O)ncc2-c2cnccn2)nc(C(C)(F)F)n1` [Example 920], the IC50 against JAK1 (IL-6 stimulated) was at least 1000 nM; against Tyk2, at most 10 nM; on JAK2 (IL-3 stimulated) it was at least 1000 nM; on JH2 domain of human Tyk2 (setting [2]), at most 10 nM.
With `COCc1ccc(-c2cnc(NC(C)=O)cc2Nc2cc(C)nc(C34COC(C3)C4)n2)nc1` [Example 565, N-(4′-((2-(2-oxabicyclo[2.1.1]hexan-4-yl)-6-methylpyrimidin-4-yl)amino)-5-(methoxymethyl)-[2,3′-bipyridin]-6′-yl)acetamide], the IC50 against JAK1 (IL-6 stimulated, MSD) was at least 1000 nM; at Tyk2 (MSD), at most 10 nM; on JAK2 (IL-3 stimulated, MSD), at least 1000 nM; at JH2 domain of human Tyk2 (setting [3]) it was at most 10 nM.
In the case of `CC(=O)Nc1cc(Nc2cc(C)nc(C(C)(F)F)n2)c(OC[C@H]2C[C@H]2F)cn1` (racemic) [Example 425, Cis-rac-N-(4-((2-(1,1-difluoroethyl)-6-methylpyrimidin-4-yl)amino)-5-((2-fluorocyclopropyl)methoxy)pyridin-2-yl)acetamide], the IC50 is at least 1000 nM at JAK1 (IL-6 stimulated, MSD); at most 10 nM against Tyk2 (MSD); at least 1000 nM at JAK2 (IL-3 stimulated, MSD); at most 10 nM on JH2 domain of human Tyk2 (setting [3]).
Regarding `CCc1cc(Nc2cc(NC(C)=O)ncc2-c2ncc(C3COCCO3)cn2)nc(C(C)(F)F)n1` (stereo not shown) [Example 840, N-(5-(5-(1,4-dioxan-2-yl)pyrimidin-2-yl)-4-((2-(1,1-difluoroethyl)-6-ethylpyrimidin-4-yl)amino)pyridin-2-yl)acetamide], the IC50 at JAK1 (IL-6 stimulated) is at least 1000 nM; at Tyk2 it was at most 10 nM; on JAK2 (IL-3 stimulated), at least 1000 nM; at JH2 domain of human Tyk2 (setting [2]) it was at most 10 nM.
On to `COc1cnc(NC(C)=O)cc1Nc1cc(C(C)C)nc(C(C)(F)F)n1` [Example 52, N-(4-((2-(1,1-difluoroethyl)-6-isopropylpyrimidin-4-yl)amino)-5-methoxypyridin-2-yl)acetamide], for which the IC50 against JAK1 (IL-6 stimulation, MSD) is at least 1000 nM; against Tyk2 (MSD), 10 to 100 nM; at JAK2 (IL-3 stimulation, MSD) it was at least 1000 nM; at JH2 domain of human Tyk2 (setting [1]), at most 10 nM.
For `COCc1cccc(-c2cnc(NC(C)=O)cc2Nc2cc(C)nc(C(C)(F)F)n2)n1` [Example 636, N-(4′-((2-(1,1-difluoroethyl)-6-methylpyrimidin-4-yl)amino)-6-(methoxymethyl)-[2,3′-bipyridin]-6′-yl)acetamide], the IC50 against JAK1 (IL-6 stimulated, MSD) is at least 1000 nM; against Tyk2 (MSD) it was at most 10 nM; on JAK2 (IL-3 stimulated, MSD) it was at least 1000 nM; on JH2 domain of human Tyk2 (setting [3]), at most 10 nM.
In the case of `CC(=O)Nc1cc(Nc2cc(C)nc(C(C)(F)F)n2)c(-c2ccc(F)cn2)cn1` [Example 594, N-(4′-((2-(1,1-difluoroethyl)-6-methylpyrimidin-4-yl)amino)-5-fluorO[2,3′-bipyridin]-6′-yl)acetamide], the IC50 is at least 1000 nM at JAK1 (IL-6 stimulated, MSD); at most 10 nM against Tyk2 (MSD); at least 1000 nM against JAK2 (IL-3 stimulated, MSD); at most 10 nM at JH2 domain of human Tyk2 (setting [3]).
`CCOc1cnc(NC(=O)OC)cc1Nc1cc(C)nc(C(C)(F)F)n1` [Example 360, methyl (4-((2-(1,1-difluoroethyl)-6-methylpyrimidin-4-yl)amino)-5-ethoxypyridin-2-yl)carbamate]: the IC50 was at least 1000 nM on JAK1 (IL-6 stimulation, MSD); 10 to 100 nM against Tyk2 (MSD); at least 1000 nM on JAK2 (IL-3 stimulation, MSD); at most 10 nM at JH2 domain of human Tyk2 (setting [1]).
Turning to `CC(=O)Nc1cc(Nc2cc(C)nc(C(C)(F)F)n2)c(-c2ccn(C3CC3)n2)cn1` [Example 602, N-(5-(1-cyclopropyl-1H-pyrazol-3-yl)-4-((2-(1,1-difluoroethyl)-6-methylpyrimidin-4-yl)amino)pyridin-2-yl)acetamide], the IC50 at JAK1 (IL-6 stimulated, MSD) is at least 1000 nM; at Tyk2 (MSD) it was at most 10 nM; against JAK2 (IL-3 stimulated, MSD), at least 1000 nM; at JH2 domain of human Tyk2 (setting [3]), at most 10 nM.
`CCc1cc(Nc2cc(NC(C)=O)ncc2-c2ccc(CN3CCOCC3)cn2)nc(C(C)(F)F)n1` [Example 268, N-(4′-((2-(1,1-difluoroethyl)-6-ethylpyrimidin-4-yl)amino)-5-(morpholinomethyl)-[2,3′-bipyridin]-6′-yl)acetamide]: the concentration for half-maximal inhibition (IC50) against JAK1 (IL-6 stimulation, MSD) is at least 1000 nM; against Tyk2 (MSD) it was at most 10 nM; against JAK2 (IL-3 stimulation, MSD), at least 1000 nM; at JH2 domain of human Tyk2 (setting [1]), at most 10 nM.
Regarding `COCCOc1cnc(NC(C)=O)cc1Nc1cc(OC2CC2)nc(C(C)(C)F)n1` [Example 446, N-(4-((6-cyclopropoxy-2-(2-fluoropropan-2-yl)pyrimidin-4-yl)amino)-5-(2-methoxyethoxy)pyridin-2-yl)acetamide], the IC50 against JAK1 (IL-6 stimulated, MSD) was at least 1000 nM; on Tyk2 (MSD), at most 10 nM; against JAK2 (IL-3 stimulated, MSD), at least 1000 nM; on JH2 domain of human Tyk2 (setting [3]), at most 10 nM.
For `COc1cnc(NC(C)=O)cc1Nc1cc(OC2CC2)nc(C(C)(F)F)n1` [Example 91, N-(4-((6-cyclopropoxy-2-(1,1-difluoroethyl)pyrimidin-4-yl)amino)-5-methoxypyridin-2-yl)acetamide], the IC50 against JAK1 (IL-6 stimulation, MSD) was at least 1000 nM; on Tyk2 (MSD), 10 to 100 nM; at JAK2 (IL-3 stimulation, MSD), at least 1000 nM; at JH2 domain of human Tyk2 (setting [1]), at most 10 nM.
For `CC(=O)Nc1cc(Nc2ccnc(C(C)(F)F)n2)c(-c2nnc(C(C)(C)C)s2)cn1` [Example 715, N-(5-(5-(tert-butyl)-1,3,4-thiadiazol-2-yl)-4-((2-(1,1-difluoroethyl)pyrimidin-4-yl)amino)pyridin-2-yl)acetamide], the IC50 against JAK1 (IL-6 stimulated, MSD) is at least 1000 nM; on Tyk2 (MSD) it was at most 10 nM; against JAK2 (IL-3 stimulated, MSD), at least 1000 nM; at JH2 domain of human Tyk2 (setting [3]), at most 10 nM.
Turning to `CC(=O)Nc1cc(Nc2ccnc(C(C)(C)F)n2)c(-c2ccnc(C)n2)cn1` [Example 175, N-(4-((2-(2-fluoropropan-2-yl)pyrimidin-4-yl)amino)-5-(2-methylpyrimidin-4-yl)pyridin-2-yl)acetamide], the IC50 is at least 1000 nM on JAK1 (IL-6 stimulation, MSD); at most 10 nM on Tyk2 (MSD); at least 1000 nM against JAK2 (IL-3 stimulation, MSD); at most 10 nM at JH2 domain of human Tyk2 (setting [1]).
As for `CC(=O)Nc1cc(Nc2cc(C)nc(C(C)(F)F)n2)c(-c2ccncn2)cn1` [Example 270, N-(4-((2-(1,1-difluoroethyl)-6-methylpyrimidin-4-yl)amino)-5-(pyrimidin-4-yl)pyridin-2-yl)acetamide], the IC50 at JAK1 (IL-6 stimulation, MSD) is at least 1000 nM; against Tyk2 (MSD) it was at most 10 nM; at JAK2 (IL-3 stimulation, MSD), at least 1000 nM; at JH2 domain of human Tyk2 (setting [1]), at most 10 nM.
For `COc1ccc(-c2cnc(NC(C)=O)cc2Nc2cc(C)nc(C(C)(F)F)n2)nn1` [Example 676, N-(4-((2-(1,1-difluoroethyl)-6-methylpyrimidin-4-yl)amino)-5-(6-methoxypyridazin-3-yl)pyridin-2-yl)acetamide], the IC50 was at least 1000 nM at JAK1 (IL-6 stimulated, MSD); at most 10 nM against Tyk2 (MSD); at least 1000 nM at JAK2 (IL-3 stimulated, MSD); at most 10 nM at JH2 domain of human Tyk2 (setting [3]).
In the case of `COc1cnc(NC(C)=O)cc1Nc1cc(C)nc(C(C)(F)F)n1` [Example 46, N-(4-((2-(1,1-difluoroethyl)-6-methylpyrimidin-4-yl)amino)-5-methoxypyridin-2-yl)acetamide], the IC50 on JAK1 (IL-6 stimulation, MSD) was at least 1000 nM; on Tyk2 (MSD), 10 to 100 nM; against JAK2 (IL-3 stimulation, MSD), at least 1000 nM; at JH2 domain of human Tyk2 (setting [1]), at most 10 nM.
For the molecule `COCCOc1cnc(NC(C)=O)cc1Nc1cncc(C(C)(F)F)n1` [Example 67, N-(4-((6-(1,1-difluoroethyl)pyrazin-2-yl)amino)-5-(2-methoxyethoxy)pyridin-2-yl)acetamide], the IC50 at JAK1 (IL-6 stimulation, MSD) is at least 1000 nM; against Tyk2 (MSD), 10 to 100 nM; against JAK2 (IL-3 stimulation, MSD), at least 1000 nM; on JH2 domain of human Tyk2 (setting [1]), at most 10 nM.
`CC(=O)Nc1cc(Nc2cc(OC3CC3)nc(C(C)(F)F)n2)c(OCC2COCCO2)cn1` (stereo not shown) [Example 445, N-(5-((1,4-dioxan-2-yl)methoxy)-4-((6-cyclopropoxy-2-(1,1-difluoroethyl)pyrimidin-4-yl)amino)pyridin-2-yl)acetamide]: the IC50 against JAK1 (IL-6 stimulated, MSD) is at least 1000 nM; on Tyk2 (MSD), at most 10 nM; on JAK2 (IL-3 stimulated, MSD), at least 1000 nM; on JH2 domain of human Tyk2 (setting [3]), at most 10 nM.
Turning to `CC(=O)Nc1cc(Nc2cc(C)nc(C(C)(F)F)n2)c(-c2nc3c(s2)CCN(C)C3)cn1` [Example 237, N-(4-((2-(1,1-difluoroethyl)-6-methylpyrimidin-4-yl)amino)-5-(5-methyl-4,5,6,7-tetrahydrothiazolo[4,5-c]pyridin-2-yl)pyridin-2-yl)acetamide], the IC50 against JAK1 (IL-6 stimulation, MSD) is at least 1000 nM; on Tyk2 (MSD), at most 10 nM; at JAK2 (IL-3 stimulation, MSD), at least 1000 nM; at JH2 domain of human Tyk2 (setting [1]) it was at most 10 nM.
In the case of `CC(=O)Nc1cc(Nc2cc(OC3CC3)nc(C(C)(F)F)n2)c(OCC2CCCO2)cn1` (stereo not shown) [Example 139, N-(4-((6-cyclopropoxy-2-(1,1-difluoroethyl)pyrimidin-4-yl)amino)-5-((tetrahydrofuran-2-yl)methoxy)pyridin-2-yl)acetamide], the half-inhibitory concentration (IC50) was at least 1000 nM against JAK1 (IL-6 stimulation, MSD); at most 10 nM against Tyk2 (MSD); at least 1000 nM at JAK2 (IL-3 stimulation, MSD); at most 10 nM on JH2 domain of human Tyk2 (setting [1]).
